# Assay results published in ChEMBL document CHEMBL4411307, “N,N'-diaryl-bishydrazones in a biphenyl platform: Broad spectrum antifungal agents” (Eur J Med Chem, 2019).
# Activity calls are given as the source filed them. The calls are words filed in the database; no cut-off is given here.
# Tests used:
# [1] = Selectivity index, ratio of CC50 for human A549 cells to MIC for fluconazole/ITC-resistant Candida albicans ATCC MYA-1003; format: toxicity; conditions: read-out: Selectivity Index
# [2] = Selectivity index, ratio of CC50 for human A549 cells to MIC for Aspergillus flavus ATCC MYA-3631; format: toxicity; conditions: read-out: Selectivity Index
# [3] = Hemolytic activity in mouse RBC at 7.8 ug/ml after 1 hr relative to control; format: ADME, cell-based, Erythrocyte; conditions: red blood cells (erythrocytes), read-out: Activity
# [4] = Hemolytic activity in mouse RBC at 1.95 ug/ml after 1 hr relative to control; format: ADME, cell-based, Erythrocyte; conditions: red blood cells (erythrocytes), read-out: Activity
# Listeria monocytogenes = experiment: Antibacterial activity against Listeria monocytogenes; format: functional, organism-based
# [5] = Selectivity index, ratio of CC50 for human A549 cells to MIC for fluconazole/ITC-resistant Candida albicans ATCC 64124; format: toxicity; conditions: read-out: Selectivity Index
# [6] = Hemolytic activity in mouse RBC at […] ug/ml after 1 hr relative to control; format: ADME, cell-based, Erythrocyte; conditions: red blood cells (erythrocytes), read-out: Activity
# Candida albicans [7] = experiment: Antifungal activity against fluconazole/ITC-resistant Candida albicans ATCC 64124 measured after 48 hrs by CLSI M27-A3 protocol based method; format: functional; conditions: ATCC 64124, 48 h
# [8] = Selectivity index, ratio of compound concentration showing <25% hemolysis in mouse RBC to MIC for Aspergillus flavus ATCC MYA-3631; format: toxicity; conditions: mouse red blood cells (RBC), read-out: Selectivity Index
# [9] = Selectivity index, ratio of compound concentration showing <25% hemolysis in mouse RBC to MIC for Candida krusei ATCC 6258; format: toxicity; conditions: mouse red blood cells (RBC), read-out: Selectivity Index
# [10] = Selectivity index, ratio of CC50 for human A549 cells to MIC for fluconazole/ITC-resistant Candida albicans ATCC 90819; format: toxicity; conditions: read-out: Selectivity Index
# [11] = Hemolytic activity in mouse RBC at […] after 1 hr relative to control; format: ADME, cell-based, Erythrocyte; conditions: red blood cells (erythrocytes), read-out: Activity; further: tested at 0.48 µg/mL
# Nakaseomyces glabratus = experiment: Antifungal activity against Candida glabrata ATCC 2001 measured after 48 hrs by CLSI M27-A3 protocol based method; format: functional; conditions: CBS 138, 48 h
# Candida albicans [12] = experiment: Antifungal activity against fluconazole/ITC-susceptible Candida albicans ATCC MYA-2876 measured after 48 hrs by CLSI M27-A3 protocol based method; format: functional; conditions: ATCC MYA-2876, 48 h
# [13] = Selectivity index, ratio of CC50 for human A549 cells to MIC for Candida glabrata ATCC 2001; format: toxicity; conditions: read-out: Selectivity Index
# [14] = Hemolytic activity in mouse RBC at 31.3 ug/ml after 1 hr relative to control; format: ADME, cell-based, Erythrocyte; conditions: red blood cells (erythrocytes), read-out: Activity
# [15] = Selectivity index, ratio of compound concentration showing <25% hemolysis in mouse RBC to MIC for fluconazole/ITC-susceptible Candida albicans ATCC MYA-2876; format: toxicity; conditions: mouse red blood cells (RBC), read-out: Selectivity Index
# [16] = Selectivity index, ratio of compound concentration showing <25% hemolysis in mouse RBC to MIC for fluconazole/ITC-resistant Candida albicans ATCC MYA-1003; format: toxicity; conditions: mouse red blood cells (RBC), read-out: Selectivity Index
# [17] = Selectivity index, ratio of compound concentration showing <25% hemolysis in mouse RBC to MIC for fluconazole/ITC-resistant Candida albicans ATCC MYA-1237; format: toxicity; conditions: mouse red blood cells (RBC), read-out: Selectivity Index
# [18] = Selectivity index, ratio of compound concentration showing <25% hemolysis in mouse RBC to MIC for Aspergillus nidulans ATCC 38163; format: toxicity; conditions: mouse red blood cells (RBC), read-out: Selectivity Index
# Aspergillus terreus = experiment: Antifungal activity against Aspergillus terreus ATCC MYA-3633 measured after 48 hrs by CLSI M38-A2 protocol based method; format: functional; conditions: ATCC MYA-3633, 48 h
# Staphylococcus aureus = experiment: Antibacterial activity against methicillin-resistant Staphylococcus aureus; format: functional, organism-based
# [19] = Selectivity index, ratio of CC50 for human A549 cells to MIC for fluconazole/ITC-susceptible Candida albicans ATCC MYA-2310; format: toxicity; conditions: read-out: Selectivity Index
# Candida albicans [20] = experiment: Antifungal activity against fluconazole/ITC-resistant Candida albicans ATCC MYA-1003 measured after 48 hrs by CLSI M27-A3 protocol based method; format: functional; conditions: ATCC MYA-1003, 48 h
# A549 = experiment: Cytotoxicity against human A549 cells after 24 hrs by resazurin based assay; format: cell-based; conditions: a549, 24 h
# Aspergillus nidulans = experiment: Antifungal activity against Aspergillus nidulans ATCC 38163 measured after 48 hrs by CLSI M38-A2 protocol based method; format: functional; conditions: ATCC 38163, 48 h
# Candida albicans [21] = experiment: Antifungal activity against fluconazole/ITC-resistant Candida albicans ATCC MYA-1237 measured after 48 hrs by CLSI M27-A3 protocol based method; format: functional; conditions: ATCC MYA-1237, 48 h
# [22] = Selectivity index, ratio of compound concentration showing <25% hemolysis in mouse RBC to MIC for fluconazole/ITC-resistant Candida albicans ATCC 64124; format: toxicity; conditions: mouse red blood cells (RBC), read-out: Selectivity Index
# [23] = Selectivity index, ratio of CC50 for human A549 cells to MIC for fluconazole/ITC-susceptible Candida albicans ATCC MYA-2876; format: toxicity; conditions: read-out: Selectivity Index
# Candida parapsilosis = experiment: Antifungal activity against Candida parapsilosis ATCC 22019 measured after 48 hrs by CLSI M27-A3 protocol based method; format: functional; conditions: Lodderomyces parapsilosis, ATCC 22019, 48 h
# [24] = Selectivity index, ratio of CC50 for human A549 cells to MIC for Aspergillus terreus ATCC MYA-3633; format: toxicity; conditions: read-out: Selectivity Index
# BEAS-2B = experiment: Cytotoxicity against human BEAS2B cells after 24 hrs by resazurin based assay; format: cell-based
# [25] = Selectivity index, ratio of CC50 for human A549 cells to MIC for Candida parapsilosis ATCC 22019; format: toxicity; conditions: read-out: Selectivity Index
# [26] = Hemolytic activity in mouse RBC at 3.9 ug/ml after 1 hr relative to control; format: ADME, cell-based, Erythrocyte; conditions: red blood cells (erythrocytes), read-out: Activity
# Candida albicans [27] = experiment: Antifungal activity against fluconazole/ITC-resistant Candida albicans ATCC 90819 measured after 48 hrs by CLSI M27-A3 protocol based method; format: functional; conditions: ATCC 90819, 48 h
# Aspergillus flavus = experiment: Antifungal activity against Aspergillus flavus ATCC MYA-3631 measured after 48 hrs by CLSI M38-A2 protocol based method; format: functional; conditions: ATCC MYA-3631, 48 h
# [28] = Selectivity index, ratio of compound concentration showing <25% hemolysis in mouse RBC to MIC for fluconazole/ITC-susceptible Candida albicans ATCC MYA-2310; format: toxicity; conditions: mouse red blood cells (RBC), read-out: Selectivity Index
# [29] = Selectivity index, ratio of compound concentration showing <25% hemolysis in mouse RBC to MIC for Aspergillus terreus ATCC MYA-3633; format: toxicity; conditions: mouse red blood cells (RBC), read-out: Selectivity Index
# Candida albicans [30] = experiment: Antifungal activity against fluconazole/ITC-susceptible Candida albicans ATCC MYA-2310 measured after 48 hrs by CLSI M27-A3 protocol based method; format: functional; conditions: ATCC MYA-2310, 48 h
# [31] = Selectivity index, ratio of compound concentration showing <25% hemolysis in mouse RBC to MIC for Candida parapsilosis ATCC 22019; format: toxicity; conditions: mouse red blood cells (RBC), read-out: Selectivity Index
# [32] = Selectivity index, ratio of CC50 for human A549 cells to MIC for fluconazole/ITC-resistant Candida albicans ATCC 10231; format: toxicity; conditions: read-out: Selectivity Index
# Pichia kudriavzevii = experiment: Antifungal activity against Candida krusei ATCC 6258 measured after 48 hrs by CLSI M27-A3 protocol based method; format: functional; conditions: ATCC 6258, 48 h
# [33] = Selectivity index, ratio of CC50 for human A549 cells to MIC for Candida krusei ATCC 6258; format: toxicity; conditions: read-out: Selectivity Index
# Candida albicans [34] = experiment: Antifungal activity against fluconazole/ITC-resistant Candida albicans ATCC 10231 measured after 48 hrs by CLSI M27-A3 protocol based method; format: functional; conditions: ATCC 10231, 48 h
# [35] = Hemolytic activity in mouse RBC at 62.5 ug/ml after 1 hr relative to control; format: ADME, cell-based, Erythrocyte; conditions: red blood cells (erythrocytes), read-out: Activity
# Enterococcus = experiment: Antibacterial activity against vancomycin-resistant Enterococcus; format: functional, organism-based
# [36] = Selectivity index, ratio of compound concentration showing <25% hemolysis in mouse RBC to MIC for fluconazole/ITC-resistant Candida albicans ATCC 10231; format: toxicity; conditions: mouse red blood cells (RBC), read-out: Selectivity Index
# [37] = Selectivity index, ratio of CC50 for human A549 cells to MIC for fluconazole/ITC-resistant Candida albicans ATCC MYA-1237; format: toxicity; conditions: read-out: Selectivity Index
# [38] = Selectivity index, ratio of CC50 for human A549 cells to MIC for Aspergillus nidulans ATCC 38163; format: toxicity; conditions: read-out: Selectivity Index
# [39] = Selectivity index, ratio of compound concentration showing <25% hemolysis in mouse RBC to MIC for Candida glabrata ATCC 2001; format: toxicity; conditions: mouse red blood cells (RBC), read-out: Selectivity Index
# [40] = Selectivity index, ratio of compound concentration showing <25% hemolysis in mouse RBC to MIC for fluconazole/ITC-resistant Candida albicans ATCC 90819; format: toxicity; conditions: mouse red blood cells (RBC), read-out: Selectivity Index
smiles,measurement,setting,value
Fc1ccc(N/N=C/c2ccc(-c3cccc(/C=N/Nc4ccc(F)cc4F)c3)cc2)c(F)c1,selectivity ratio,[1],2.1
same,selectivity ratio,[2],2.1
same,"hemolysis at 1 h, 7.8 ug/ml",[3],8.6%
same,"hemolysis at 1 h, 1.95 ug/ml",[4],4.5%
same,Activity,Listeria monocytogenes,inactive
same,selectivity ratio,[5],2.1
same,"hemolysis at 1 h, 15.6 ug/ml",[6]; at 15.6 µg/mL,14.6%
same,"hemolysis at 1 h, 0.975 ug/ml",[6],0%
same,MIC,Candida albicans [7],7.8 µg/mL
same,selectivity ratio,[8],1 to 32
same,selectivity ratio,[9],1 to 32
same,selectivity ratio,[10],1.1
same,"hemolysis at 1 h, […]",[11],1.6%
same,MIC,Nakaseomyces glabratus,15.6 µg/mL
same,MIC,Candida albicans [12],15.6 µg/mL
same,selectivity ratio,[13],1.1
same,"hemolysis at 1 h, 31.3 ug/ml",[14],14.6%
same,selectivity ratio,[15],1 to 32
same,selectivity ratio,[16],1 to 32
same,selectivity ratio,[17],1 to 32
same,selectivity ratio,[18],1 to 32
same,MIC,Aspergillus terreus,31.3 µg/mL
same,Activity,Staphylococcus aureus,inactive
same,selectivity ratio,[19],1.1
same,MIC,Candida albicans [20],7.8 µg/mL
same,CC50,A549,16.4 µg/mL
same,MIC,Aspergillus nidulans,7.8 µg/mL
same,MIC,Candida albicans [21],7.8 µg/mL
same,selectivity ratio,[22],1 to 32
same,selectivity ratio,[23],1.1
same,MIC,Candida parapsilosis,31.3 µg/mL
same,selectivity ratio,[24],0.5
same,CC50,BEAS-2B,16.9 µg/mL
same,selectivity ratio,[25],0.5
same,"hemolysis at 1 h, 3.9 ug/ml",[26],4.2%
same,MIC,Candida albicans [27],15.6 µg/mL
same,MIC,Aspergillus flavus,7.8 µg/mL
same,selectivity ratio,[28],1 to 32
same,selectivity ratio,[29],1 to 32
same,MIC,Candida albicans [30],15.6 µg/mL
same,selectivity ratio,[31],1 to 32
same,selectivity ratio,[32],4.2
same,MIC,Pichia kudriavzevii,1.95 µg/mL
same,selectivity ratio,[33],8.4
same,MIC,Candida albicans [34],3.9 µg/mL
same,"hemolysis at 1 h, 62.5 ug/ml",[35],23.5%
same,Activity,Enterococcus,inactive
same,selectivity ratio,[36],1 to 32
same,selectivity ratio,[37],2.1
same,selectivity ratio,[38],2.1
same,selectivity ratio,[39],1 to 32
same,selectivity ratio,[40],1 to 32
